Data on 26 molecules can be found in patent US20260042753A1 (Merck Patent GmbH, priority 2019, published 2026).

The target of one assay is c-Kit(V654A) (Homo sapiens, UniProt P10721, V654A). Briefly: c-Kit(V654A) assay. The assay is classed as biochemical. The procedure, abridged: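 Radiometric filter-binding read-out: after 3% phosphoric acid stop, peptide-incorporated 33P on filtermat scintillation-counted. Enzyme: human c-Kit V654A, residues 544–end, N-terminal GST fusion.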
Assay [1] deals with mutant cKIT (560-576 and V654A) in GIST430/654 cell line (Homo sapiens (Human), UniProt P10721, DEL560-576/V654A). The assay is described as follows: Cellular testing of cKIT mutant inhibitors: phospho-Y307-cKIT Luminex assay in GIST430/654 cells. The assay is classed as cell-based. Conditions: read-out: GIST 430/654 IC50. In a few lines:
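Autophosphorylation of mutant cKIT at Y307 was quantified by a Luminex bead sandwich assay (total-cKIT capture, phosphospecific detection) after 45 min compound exposure in GIST430/654 cells, cultured in medium containing 100 nM imatinib. Signals were normalised to solvent (0.3% DMSO) controls and dose-response curves fitted for IC50.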

Where [2] appears, read: Table 1, cKIT autophosphorylation, compounds 45 min.
Where [3] appears, read: Table 2, corresponding triazole derivatives.

Read-outs that look alike come from different tables or passages of the source.

Sequence of mutant cKIT (560-576 and V654A) in GIST430/654 cell line (P10721 other isoform, or with tags, fused parts or gaps V654A/del 1-25/del 560-576 limits assumed): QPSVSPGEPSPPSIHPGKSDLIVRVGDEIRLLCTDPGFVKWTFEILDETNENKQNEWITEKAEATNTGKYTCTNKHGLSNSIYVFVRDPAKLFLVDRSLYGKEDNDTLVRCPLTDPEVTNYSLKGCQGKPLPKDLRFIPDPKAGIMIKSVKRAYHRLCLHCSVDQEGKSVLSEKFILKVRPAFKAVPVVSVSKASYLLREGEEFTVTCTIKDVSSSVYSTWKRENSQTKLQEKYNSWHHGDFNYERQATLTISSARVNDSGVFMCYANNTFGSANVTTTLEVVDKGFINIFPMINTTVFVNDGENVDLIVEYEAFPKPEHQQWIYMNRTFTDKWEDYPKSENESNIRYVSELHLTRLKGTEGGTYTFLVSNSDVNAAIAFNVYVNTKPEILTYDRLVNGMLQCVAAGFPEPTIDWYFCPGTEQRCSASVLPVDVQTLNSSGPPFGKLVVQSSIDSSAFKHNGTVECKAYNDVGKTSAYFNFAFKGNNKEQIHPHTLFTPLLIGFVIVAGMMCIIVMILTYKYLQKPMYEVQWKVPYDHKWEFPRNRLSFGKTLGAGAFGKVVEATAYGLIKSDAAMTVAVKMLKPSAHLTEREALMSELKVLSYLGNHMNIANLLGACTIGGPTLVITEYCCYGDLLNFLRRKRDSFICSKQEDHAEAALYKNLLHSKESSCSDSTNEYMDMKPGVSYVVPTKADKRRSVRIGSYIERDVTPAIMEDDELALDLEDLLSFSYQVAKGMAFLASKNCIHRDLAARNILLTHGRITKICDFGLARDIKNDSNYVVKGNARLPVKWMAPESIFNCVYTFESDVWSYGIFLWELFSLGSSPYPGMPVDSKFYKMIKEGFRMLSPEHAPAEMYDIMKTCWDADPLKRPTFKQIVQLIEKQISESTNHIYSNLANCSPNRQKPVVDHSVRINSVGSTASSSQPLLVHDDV

Turning to `COCCOc1cc2[nH]nc(-c3cc(-c4ccc(C(=O)N5CC[C@@H](F)C5)nc4)no3)c2cc1F` [A100, 5-fluoro-3-(3-{6-[(3R)-3-fluoropyrrolidine-1-carbonyl]pyridin-3-yl}-1,2-oxazol-5-yl)-6-(2-methoxyethoxy)-1H-indazole], the IC50 came out at 0.0057 µM against c-Kit(V654A) (Table 1, 200 μM ATP) and 0.34 µM in assay [1] (setting [2]).

As for `COCCOc1cc2[nH]nc(-c3cc(-c4ccc(C(=O)N5C6CC5CS(=O)(=O)C6)cc4)no3)c2cc1F` [A108, 6-(4-{5-[5-fluoro-6-(2-methoxyethoxy)-1H-indazol-3-yl]-1,2-oxazol-3-yl}benzoyl)-3lambda6-thia-6-azabicyclo[3.1.1]heptane-3,3-dione], the IC50 stood at 0.00081 µM on c-Kit(V654A) (Table 1, 200 μM ATP) and 0.056 µM in assay [1] (setting [2]).

`O=C(c1ccc(-c2cc(-c3n[nH]c4cc(OCCO)c(F)cc34)on2)cc1)N1CCNCC1` [A224, 2-[(5-fluoro-3-{3-[4-(piperazine-1-carbonyl)phenyl]-1,2-oxazol-5-yl}-1H-indazol-6-yl)oxy]ethan-1-ol]: the IC50 against c-Kit(V654A) (Table 1, 200 μM ATP) worked out at 0.0011 µM; in assay [1] (setting [2]) it was 0.25 µM.

Consider `COCCOc1cc2[nH]nc(-c3cc(-c4ccc(C(=O)N5CCN(C)C[C@@H]5C)cc4)on3)c2cc1C#N` [A11, 3-(5-{4-[(2S)-2,4-dimethylpiperazine-1-carbonyl]phenyl}-1,2-oxazol-3-yl)-6-(2-methoxyethoxy)-1H-indazole-5-carbonitrile], for which the IC50 against c-Kit(V654A) (Table 1, 200 μM ATP) is 0.0024 µM; in assay [1] (setting [2]), 0.17 µM.

Regarding `COCCOc1cc2[nH]nc(-c3cc(-c4ccc(C(=O)N5C[C@H]6COC[C@H]6C5)c(F)c4)no3)c2cc1F` [A71, (2-fluoro-4-{5-[5-fluoro-6-(2-methoxy-ethoxy)-1H-indazol-3-yl]-isoxazol-3-yl}-phenyl)-(cis)-tetrahydro-furo[3,4-c]pyrrol-5-yl-methanone], the IC50 against c-Kit(V654A) (Table 1, 200 μM ATP) was determined as 0.0043 µM; in assay [1] (setting [2]), 0.09 µM.

Consider `COCCOc1cc2[nH]nc(-c3cc(-c4ccc(C(=O)N5CCC6(CN(C)C6)C5)cc4)no3)c2cc1F` [A160, 5-fluoro-6-(2-methoxyethoxy)-3-[3-(4-{2-methyl-2,6-diazaspiro[3.4]octane-6-carbonyl}phenyl)-1,2-oxazol-5-yl]-1H-indazole], for which the IC50 came out at 0.0025 µM at c-Kit(V654A) (Table 1, 200 μM ATP) and 0.17 µM in assay [1] (setting [2]).

As to `[2H]C1([2H])N(C(=O)c2ccc(-c3cc(-c4n[nH]c5cc(OCCO)c(F)cc45)on3)cc2)C([2H])([2H])C([2H])([2H])N(C2COC2)C1([2H])[2H]` [A234, 2-{[5-fluoro-3-(3-{4-[4-(oxetan-3-yl)(2,2,3,3,5,5,6,6-^2H8)piperazine-1-carbonyl]phenyl}-1,2-oxazol-5-yl)-1H-indazol-6-yl]oxy}ethan-1-ol], the IC50 at c-Kit(V654A) (Table 1, 200 μM ATP) was 0.0009 µM; in assay [1] (setting [2]), 0.17 µM.

Turning to `COCCOc1cc2[nH]nc(-c3cc(-c4ccc(C(=O)N5CCC6(CCOCC6)C5)cc4)no3)c2cc1F` [A159, 2-(4-{5-[5-fluoro-6-(2-methoxyethoxy)-1H-indazol-3-yl]-1,2-oxazol-3-yl}benzoyl)-8-oxa-2-azaspiro[4.5]decane], the IC50 at c-Kit(V654A) (Table 1, 200 μM ATP) worked out at 0.00029 µM; in assay [1] (setting [2]), 0.021 µM.

As for `COCCOc1cc2[nH]nc(-c3cc(-c4ccc(C(=O)N5CCN(C6COC6)C[C@H]5C)cc4)no3)c2cc1F` [A190, 5-fluoro-6-(2-methoxyethoxy)-3-(3-{4-[(2R)-2-methyl-4-(oxetan-3-yl)piperazine-1-carbonyl]phenyl}-1,2-oxazol-5-yl)-1H-indazole], the IC50 amounted to 0.0016 µM at c-Kit(V654A) (Table 1, 200 μM ATP) and 0.055 µM in assay [1] (setting [2]).

As to `COCCOc1cc2[nH]nc(-c3cc(-c4ccc(C(=O)N5CC(C)(O)C5)cc4)no3)c2cc1F` [A34, 1-(4-{5-[5-fluoro-6-(2-methoxyethoxy)-1H-indazol-3-yl]-1,2-oxazol-3-yl}benzoyl)-3-methylazetidin-3-ol], the IC50 against c-Kit(V654A) (Table 1, 200 μM ATP) was 0.00083 µM; in assay [1] (setting [2]), 0.12 µM.

Regarding `COCCOc1cc2[nH]nc(-c3cc(-c4ccc(C(=O)N5CC(N6CCOCC6)C5)c(F)c4)no3)c2cc1F` [A168, (2-fluoro-4-{5-[5-fluoro-6-(2-methoxy-ethoxy)-1H-indazol-3-yl]-isoxazol-3-yl}-phenyl)-(3-morpholin-4-yl-azetidin-1-yl)-methanone], the IC50 against c-Kit(V654A) (Table 1, 200 μM ATP) turned out to be 0.0033 µM; in assay [1] (setting [2]) it was 0.049 µM.

As to `COCCOc1cc2[nH]nc(-c3cc(-c4ccc(C(=O)N(C)C)cc4)no3)c2cc1C#N` [A6, 4-{5-[5-cyano-6-(2-methoxyethoxy)-1H-indazol-3-yl]-1,2-oxazol-3-yl}-N,N-dimethylbenzamide], the IC50 turned out to be 0.0041 µM against c-Kit(V654A) (Table 1, 200 μM ATP) and 0.15 µM in assay [1] (setting [2]).

In the case of `COCCOc1cc2[nH]nc(-c3cc(-c4ccc(C(=O)N(C)C)cc4)no3)c2cc1Cl` [A12, 4-{5-[5-chloro-6-(2-methoxyethoxy)-1H-indazol-3-yl]-1,2-oxazol-3-yl}-N,N-dimethylbenzamide], the IC50 against c-Kit(V654A) (Table 1, 200 μM ATP) was 0.00091 µM; in assay [1] (setting [2]), 0.16 µM.

For `COCCOc1cc2[nH]nc(-c3cc(-c4ccc(C(=O)N5CC(N6CCC(O)CC6)C5)cc4)no3)c2cc1F` [A103, 1-[1-(4-{5-[5-fluoro-6-(2-methoxyethoxy)-1H-indazol-3-yl]-1,2-oxazol-3-yl}benzoyl)azetidin-3-yl]piperidin-4-ol], the IC50 is 0.00096 µM on c-Kit(V654A) (Table 1, 200 μM ATP) and 0.14 µM in assay [1] (setting [2]).

On to `COCCOc1cc2[nH]nc(-c3cc(-c4ccc(C(=O)N5CC(N6CCOCC6)C5)c(C)c4)no3)c2cc1F` [A171, (4-{5-[5-fluoro-6-(2-methoxy-ethoxy)-1H-indazol-3-yl]-isoxazol-3-yl}-2-methyl-phenyl)-(3-morpholin-4-yl-azetidin-1-yl)-methanone], for which the IC50 amounted to 0.0014 µM at c-Kit(V654A) (Table 1, 200 μM ATP) and 0.063 µM in assay [1] (setting [2]).

Consider `COCCOc1cc2[nH]nc(-c3cc(-c4ccc(C(=O)N5CCC[C@@H]5CNS(C)(=O)=O)cc4)no3)c2cc1F` [A94, N-{[(2R)-1-(4-{5-[5-fluoro-6-(2-methoxyethoxy)-1H-indazol-3-yl]-1,2-oxazol-3-yl}benzoyl)pyrrolidin-2-yl]methyl}methanesulfonamide], for which the IC50 on c-Kit(V654A) (Table 1, 200 μM ATP) amounted to 0.00058 µM; in assay [1] (setting [2]) it was 0.1 µM.

For the molecule `COCCOc1cc2[nH]nc(-c3cc(-c4ccc(C(=O)N5CC6(CCO6)C5)cc4)no3)c2cc1F` [A79, 5-fluoro-6-(2-methoxyethoxy)-3-[3-(4-{1-oxa-6-azaspiro[3.3]heptane-6-carbonyl}phenyl)-1,2-oxazol-5-yl]-1H-indazole], the IC50 against c-Kit(V654A) (Table 1, 200 μM ATP) is 0.0011 µM; in assay [1] (setting [2]), 0.17 µM.

For `COCCOc1cc2[nH]nc(-c3cc(-c4ccc(C(=O)N5CCN(C6CCOC6)CC5)cc4)no3)c2cc1F` (stereo not shown) [A175, 5-fluoro-6-(2-methoxyethoxy)-3-(3-{4-[4-(oxolan-3-yl)piperazine-1-carbonyl]phenyl}-1,2-oxazol-5-yl)-1H-indazole], the IC50 is 0.00086 µM on c-Kit(V654A) (Table 1, 200 μM ATP) and 0.043 µM in assay [1] (setting [2]).

For the molecule `COCCOc1cc2[nH]nc(-c3cc(-c4ccc(C(=O)N5CC(N6CCOC[C@H]6C)C5)cc4)no3)c2cc1F` [A201, 5-fluoro-6-(2-methoxyethoxy)-3-[3-(4-{3-[(3R)-3-methylmorpholin-4-yl]azetidine-1-carbonyl}phenyl)-1,2-oxazol-5-yl]-1H-indazole], the IC50 against c-Kit(V654A) (Table 1, 200 μM ATP) stood at 0.002 µM; in assay [1] (setting [2]), 0.031 µM.

For `COCCOc1cc2[nH]nc(-c3cc(-c4ccc(C(=O)N5CCC[C@H]5C(C)(C)O)nc4)no3)c2cc1F` [A107, 2-[(2S)-1-(5-{5-[5-fluoro-6-(2-methoxyethoxy)-1H-indazol-3-yl]-1,2-oxazol-3-yl}pyridine-2-carbonyl)pyrrolidin-2-yl]propan-2-ol], the IC50 turned out to be 0.0056 µM at c-Kit(V654A) (Table 1, 200 μM ATP) and 0.053 µM in assay [1] (setting [2]).

Take `COCCOc1cc2[nH]nc(-c3cc(-c4ccc(C(=O)N5CCOC[C@@H]5COC)cc4)no3)c2cc1F` [A110, 5-fluoro-6-(2-methoxyethoxy)-3-(3-{4-[(3S)-3-(methoxymethyl)morpholine-4-carbonyl]phenyl}-1,2-oxazol-5-yl)-1H-indazole]: the IC50 against c-Kit(V654A) (Table 1, 200 μM ATP) was found to be 0.00076 µM; in assay [1] (setting [2]) it was 0.05 µM.

Take `COCCOc1cc2[nH]nc(-c3cc(-c4ccc(C(=O)N5Cc6cn[nH]c6C5)cc4)no3)c2cc1F` [A208, 5-fluoro-6-(2-methoxyethoxy)-3-[3-(4-{1H,4H,5H,6H-pyrrolo[3,4-c]pyrazole-5-carbonyl}phenyl)-1,2-oxazol-5-yl]-1H-indazole]: the IC50 at c-Kit(V654A) (Table 1, 200 μM ATP) was found to be 0.00074 µM; in assay [1] (setting [2]), 0.075 µM.

As for `COCCNC(=O)c1ccc2c(-c3cc(-c4ccc(C(=O)N(C)C)cc4)no3)n[nH]c2c1` [A25, 3-{3-[4-(dimethylcarbamoyl)phenyl]-1,2-oxazol-5-yl}-N-(2-methoxyethyl)-1H-indazole-6-carboxamide], the IC50 against c-Kit(V654A) (Table 1, 200 μM ATP) was 0.03 µM; in assay [1] (setting [2]), 5.7 µM.

`COCCOc1cc2[nH]nc(-c3cn(-c4ccc(C(=O)N5CCOC[C@H]5C)cc4)nn3)c2cc1F` [reference compound]: the values for the IC50 (at c-Kit(V654A) (setting [3]); in assay [1] (setting [3])) were 0.0043 µM and 0.23 µM, respectively.

Take `COCCOc1cc2[nH]nc(-c3cc(-c4ccc(C(=O)N5CCN([C@H]6CCOC6)CC5)cc4)no3)c2cc1F` [A186, 5-fluoro-6-(2-methoxyethoxy)-3-[3-(4-{4-[(3S)-oxolan-3-yl]piperazine-1-carbonyl}phenyl)-1,2-oxazol-5-yl]-1H-indazole]: the IC50 against c-Kit(V654A) (Table 1, 200 μM ATP) came out at 0.0011 µM; in assay [1] (setting [2]), 0.048 µM.

Take `COCCOc1cc2[nH]nc(-c3cc(-c4ccc(C(=O)N5CCOC[C@@H]5C)cc4)no3)c2cc1F` [A115, 5-fluoro-6-(2-methoxyethoxy)-3-(3-{4-[(3S)-3-methylmorpholine-4-carbonyl]phenyl}-1,2-oxazol-5-yl)-1H-indazole]: the IC50 against c-Kit(V654A) (Table 1, 200 μM ATP) stood at 0.00083 µM; in assay [1] (setting [2]) it was 0.045 µM.
